For four compounds, EC50 and Emax results are on record in patent publication US20230265151A1, “GIP/GLP1 CO-AGONIST COMPOUNDS” (priority 2020, published 2023).

Common to all, as to type: cell-based
One test has as its target T1, hGIPR (Homo sapiens, UniProt P48546).
T1 construct: expressed in transfected cells
T1 sequence (P48546 22-466): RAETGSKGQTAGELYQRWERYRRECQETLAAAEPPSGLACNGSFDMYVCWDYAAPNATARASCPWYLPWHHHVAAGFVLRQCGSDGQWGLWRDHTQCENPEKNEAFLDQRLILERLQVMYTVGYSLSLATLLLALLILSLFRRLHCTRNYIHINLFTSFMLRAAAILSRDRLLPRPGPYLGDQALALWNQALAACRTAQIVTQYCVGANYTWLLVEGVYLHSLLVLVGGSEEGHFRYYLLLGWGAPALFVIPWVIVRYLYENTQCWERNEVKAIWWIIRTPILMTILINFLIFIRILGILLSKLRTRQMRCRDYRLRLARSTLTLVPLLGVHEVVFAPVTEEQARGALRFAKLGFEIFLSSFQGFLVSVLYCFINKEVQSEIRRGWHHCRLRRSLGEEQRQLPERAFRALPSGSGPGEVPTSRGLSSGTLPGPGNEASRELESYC
In words: Functional cAMP formation (HTRF) in HEK-293 clonal cells expressing hGIPR, 0.1% bovine casein, without or with 1.0% human serum albumin. The note with it: for EC50: geometric mean. The method, boiled down:
(§1)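 Cells were stimulated with peptide for 30 min at 37° C, then lysed in buffer carrying cAMP-d2 and anti-cAMP Eu3+-cryptate for a competitive HTRF read after at least 60 min at room temperature. The 665/620 nm ratio was converted to nM cAMP against a standard curve.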
Background: cAMP levels reflect the balance of adenylyl cyclase and phosphodiesterase activity.

The target in the next test is T2, hGCGR (Homo sapiens, UniProt P47871).
T2 construct: expressed in transfected cells
T2 sequence (P47871 26-477): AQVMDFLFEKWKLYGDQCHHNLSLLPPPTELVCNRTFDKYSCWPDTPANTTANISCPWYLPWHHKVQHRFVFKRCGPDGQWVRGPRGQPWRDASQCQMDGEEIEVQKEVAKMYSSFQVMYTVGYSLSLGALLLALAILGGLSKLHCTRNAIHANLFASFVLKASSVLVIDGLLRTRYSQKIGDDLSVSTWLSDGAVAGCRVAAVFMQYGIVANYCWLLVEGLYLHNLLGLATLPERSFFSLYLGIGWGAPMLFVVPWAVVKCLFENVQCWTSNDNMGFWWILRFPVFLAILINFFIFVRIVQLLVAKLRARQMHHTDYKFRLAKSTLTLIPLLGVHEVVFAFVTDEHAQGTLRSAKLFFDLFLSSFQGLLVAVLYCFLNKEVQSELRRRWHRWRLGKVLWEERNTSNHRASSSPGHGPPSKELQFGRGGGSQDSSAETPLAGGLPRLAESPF
In words: Functional cAMP formation (HTRF) in HEK-293 clonal cells expressing hGCGR, 0.1% bovine casein, without or with 1.0% human serum albumin. The method, boiled down: as §1

In the next test the target is hGLP-1R (Homo sapiens, UniProt P43220). Nature of the test: Functional cAMP formation (HTRF) in HEK-293 clonal cells expressing hGLP-1R, 0.1% bovine casein, without or with 1.0% human serum albumin. Set-up: expressed in transfected cells. The note with it: for EC50: geometric mean. Put shortly:
as §1

[1] abbreviates: 0.1% bovine casein and 1.0% human serum albumin, 37° C., read-out: hGIPR EC50, nM (SEM, n).
The mark [2] stands for this setting: HEK293, cAMP, 37° C., 0.1% bovine casein, percent of maximal response to GIP(1-42)NH2, arithmetic mean, read-out: hGIPR Emax, % ± SEM.
The mark [3] stands for this setting: 0.1% bovine casein and 1.0% human serum albumin, 37° C., geometric mean, read-out: hGCGR EC50, nM (SEM, n).
[4] abbreviates: cAMP, 37° C., 0.1% bovine casein (no human serum albumin), geometric mean, read-out: hGCGR EC50, nM (SEM, n).
[5] abbreviates: 0.1% bovine casein and 1.0% human serum albumin, 37° C., read-out: hGLP-1R EC50, nM (SEM, n).
[6] abbreviates: cAMP, 37° C., 0.1% bovine casein (no human serum albumin), read-out: hGLP-1R EC50, nM (SEM, n).
The mark [7] stands for this setting: HEK293, 0.1% bovine casein and 1.0% human serum albumin, 37° C., percent of maximal response to GIP(1-42)NH2, read-out: hGIPR Emax, % ± SEM.
[8] abbreviates: HEK293, 0.1% bovine casein and 1.0% human serum albumin, 37° C., percent of maximal response to GLP-1(7-36)NH2, read-out: hGLP-1R Emax, % ± SEM.

Like-named read-outs stand apart in the source and are kept apart here. *1 amine or outer side, *2 acyl side, *3 side chain or, on linkers, in order; H or OH if unused. Where a SMILES comes first, the peptide text is derived from it. Side-chain parts run from the residue outwards. [ ]: non-standard residue; d: D form. The star is where a group is joined. αMePhe(2-F) = C[C@](N)(Cc1ccccc1F)C(=O)O; γGlu = O=C(O)[C@H](CCC(=O)[*:2])N[*:1]; αMeY = C[C@](N)(Cc1ccc(O)cc1)C(=O)O; αMeL = CC(C)C[C@](C)(N)C(=O)O; Lauroyl = CCCCCCCCCCCC(=O)*; Orn = NCCC[C@H](N)C(=O)O; AEEA = NCCOCCOCC(=O)O; Aib = CC(C)(N)C(=O)O

hGLP-1R, sequence (P43220 24-463): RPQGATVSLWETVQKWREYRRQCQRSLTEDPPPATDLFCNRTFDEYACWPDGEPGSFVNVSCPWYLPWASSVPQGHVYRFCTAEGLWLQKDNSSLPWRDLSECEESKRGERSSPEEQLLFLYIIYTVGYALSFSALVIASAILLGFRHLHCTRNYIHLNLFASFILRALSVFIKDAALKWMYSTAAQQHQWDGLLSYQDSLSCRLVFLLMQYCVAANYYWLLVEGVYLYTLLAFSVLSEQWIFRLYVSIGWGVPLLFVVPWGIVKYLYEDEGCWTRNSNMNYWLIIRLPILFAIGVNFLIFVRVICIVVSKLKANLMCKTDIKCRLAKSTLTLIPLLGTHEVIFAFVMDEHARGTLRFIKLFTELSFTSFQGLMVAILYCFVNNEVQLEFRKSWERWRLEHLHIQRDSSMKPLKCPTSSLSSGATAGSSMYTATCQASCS

One may read the EC50 as the midpoint of the concentration-response curve. By Emax is commonly meant the size of the effect at its maximum, as opposed to the concentration needed. As to `CCCCCCCCCCCC(=O)N[C@@H](CCC(=O)NCCOCCOCC(=O)NCCOCCOCC(=O)NCCCC[C@H](NC(=O)[C@H](CCCN)NC(=O)[C@H](CC(=O)O)NC(=O)[C@H](CC(C)C)NC(=O)[C@](C)(CC(C)C)NC(=O)[C@@H](NC(=O)[C@H](CO)NC(=O)[C@H](CCCCNC(=O)COCCOCCNC(=O)COCCOCCNC(=O)CC[C@H](NC(=O)CCCCCCCCCCC)C(=O)O)NC(=O)[C@H](CC(=O)O)NC(=O)[C@H](CO)NC(=O)[C@@H](NC(=O)[C@](C)(Cc1ccccc1F)NC(=O)[C@@H](NC(=O)CNC(=O)[C@H](CCC(=O)O)NC(=O)C(C)(C)NC(=O)[C@@H](N)Cc1ccc(O)cc1)[C@@H](C)O)[C@@H](C)O)[C@@H](C)CC)C(=O)N[C@@H](C)C(=O)N[C@@H](CCC(N)=O)C(=O)NC(C)(C)C(=O)N[C@@H](CCC(=O)O)C(=O)N[C@@H](Cc1ccccc1)C(=O)N[C@H](C(=O)N[C@H](CCC(=O)O)C(=O)N[C@@](C)(Cc1ccc(O)cc1)C(=O)N[C@@H](CC(C)C)C(=O)N[C@H](C(=O)N[C@@H](CCC(=O)O)C(=O)NCC(=O)NCC(N)=O)[C@@H](C)CC)[C@@H](C)CC)C(=O)O` [Example 294] (H-Y[Aib]EGT[αMePhe(2-F)]TSDK([AEEA-AEEA-γGlu-Lauroyl])SI[αMeL]LD[Orn]K([AEEA-AEEA-γGlu-Lauroyl])AQ[Aib]EFI[dE][αMeY]LIEGG-NH2), the EC50 on hGIPR (setting [1]) was 0.833 nM; on hGIPR (cAMP, 37° C., 0.1% bovine casein (no human serum albumin), read-out: hGIPR EC50, nM (SEM, n)) it was 0.00615 nM; on hGCGR (setting [3]), over 9950 nM; at hGCGR (setting [4]) it was over 9950 nM; at hGLP-1R (setting [5]) it was 6.26 nM; on hGLP-1R (setting [6]), 0.0665 nM. For the same compound, the Emax on hGIPR (setting [2]) was 105%.

Take `CC[C@H](C)[C@H](NC(=O)[C@H](CC(C)C)NC(=O)[C@](C)(Cc1ccc(O)cc1)NC(=O)[C@@H](CCC(=O)O)NC(=O)[C@@H](NC(=O)[C@H](Cc1ccccc1)NC(=O)[C@H](CCC(=O)O)NC(=O)C(C)(C)NC(=O)[C@H](CCC(N)=O)NC(=O)[C@H](C)NC(=O)[C@H](CCCCNC(=O)COCCOCCNC(=O)COCCOCCNC(=O)CCCCCCCCCCCCC(=O)O)NC(=O)[C@H](CCCN)NC(=O)[C@H](CC(=O)O)NC(=O)[C@H](CC(C)C)NC(=O)[C@](C)(CC(C)C)NC(=O)[C@@H](NC(=O)[C@H](CO)NC(=O)[C@H](Cc1ccncc1)NC(=O)[C@H](CC(=O)O)NC(=O)[C@H](CO)NC(=O)[C@@H](NC(=O)[C@](C)(Cc1ccccc1F)NC(=O)[C@@H](NC(=O)CNC(=O)[C@H](CCC(=O)O)NC(=O)C(C)(C)NC(=O)[C@@H](N)Cc1ccc(O)cc1)[C@@H](C)O)[C@@H](C)O)[C@@H](C)CC)[C@@H](C)CC)C(=O)N[C@@H](CCC(=O)O)C(=O)NCC(=O)NCC(=O)N1CCC[C@H]1C(=O)N[C@@H](CO)C(=O)N[C@@H](CO)C(=O)NCC(=O)N[C@@H](C)C(=O)N1CCC[C@H]1C(=O)N1CCC[C@H]1C(=O)N1CCC[C@H]1C(=O)N[C@@H](CO)C(=O)N[C@@H](CCCCNC(=O)COCCOCCNC(=O)COCCOCCNC(=O)CCCCCCCCCCCCC(=O)O)C(N)=O` [Example 221]: the Emax at hGIPR (setting [7]) was determined as 67.4%; at hGIPR (HEK293, percent of maximal response to GIP(1-42)NH2, 37° C., 0.1% bovine casein, arithmetic mean, read-out: hGIPR Emax, % ± SEM), 81.8%; at hGLP-1R (setting [8]), 92.3%; on hGLP-1R (HEK293, percent of maximal response to GLP-1(7-36)NH2, 37° C., 0.1% bovine casein, arithmetic mean, read-out: hGLP-1R Emax, % ± SEM) it was 83%. Also, the EC50 at hGIPR (cAMP, incubated at 37° C., 0.1% bovine casein (no human serum albumin), read-out: hGIPR EC50, nM (SEM, n)) was 0.0279 nM; on hGCGR (setting [3]), over 9950 nM; at hGCGR (cAMP, incubated at 37° C., 0.1% bovine casein (no human serum albumin), geometric mean, read-out: hGCGR EC50, nM (SEM, n)), over 9950 nM; on hGLP-1R (setting [5]), 17.9 nM.

For `CC[C@H](C)[C@H](NC(=O)[C@H](CCCN)NC(=O)[C@H](CC(=O)O)NC(=O)[C@H](CC(C)C)NC(=O)[C@](C)(CC(C)C)NC(=O)[C@@H](NC(=O)C(C)(C)NC(=O)[C@@H](NC(=O)[C@H](CC(=O)O)NC(=O)[C@H](CO)NC(=O)[C@@H](NC(=O)[C@](C)(Cc1ccccc1F)NC(=O)[C@@H](NC(=O)CNC(=O)[C@H](CCC(=O)O)NC(=O)C(C)(C)NC(=O)[C@@H](N)Cc1ccc(O)cc1)[C@@H](C)O)[C@@H](C)O)C(C)C)[C@@H](C)CC)C(=O)N[C@@H](C)C(=O)N[C@@H](CCC(N)=O)C(=O)NC(C)(C)C(=O)N[C@@H](CCCCNC(=O)COCCOCCNC(=O)COCCOCCNC(=O)CC[C@H](NC(=O)CCCCCCCCCOc1ccc(C(=O)O)cc1)C(=O)O)C(=O)N[C@@H](Cc1ccccc1)C(=O)N[C@H](C(=O)N[C@H](CCC(=O)O)C(=O)N[C@@](C)(Cc1ccc(O)cc1)C(=O)N[C@@H](CC(C)C)C(=O)N[C@H](C(=O)N[C@@H](CCCCNC(=O)COCCOCCNC(=O)COCCOCCNC(=O)CC[C@H](NC(=O)CCCCCCCCCOc1ccc(C(=O)O)cc1)C(=O)O)C(=O)NCC(=O)NCC(=O)N1CCC[C@H]1C(=O)N[C@@H](CO)C(=O)N[C@@H](CO)C(=O)NCC(=O)N[C@@H](C)C(=O)N1CCC[C@H]1C(=O)N1CCC[C@H]1C(=O)N1CCC[C@H]1C(=O)N[C@@H](CO)C(N)=O)[C@@H](C)CC)[C@@H](C)CC` [Example 330], the maximal effect (Emax) stood at 112% on hGIPR (HEK293, read-out: hGIPR Emax, % ± SEM, cAMP, 37° C., 0.1% bovine casein, percent of maximal response to GIP(1-42)NH2, arithmetic mean); 85% on hGLP-1R (HEK293, read-out: hGLP-1R Emax, % ± SEM, cAMP, 37° C., 0.1% bovine casein and 1.0% human serum albumin, percent of maximal response to GLP-1(7-36)NH2). For the same compound, the EC50 was 0.0185 nM on hGIPR (hGIPR EC50, nM (SEM, n), cAMP, 37° C., 0.1% bovine casein (no human serum albumin)); over 9950 nM on hGCGR (hGCGR EC50, nM (SEM, n), cAMP, 37° C., 0.1% bovine casein (no human serum albumin), geometric mean); over 9950 nM at hGCGR (hGCGR EC50, nM (SEM, n), cAMP, 37° C., 0.1% bovine casein and 1.0% human serum albumin, geometric mean (SEM, n)); 0.477 nM on hGLP-1R (hGLP-1R EC50, nM (SEM, n), cAMP, 37° C., 0.1% bovine casein (no human serum albumin)).

Turning to `CCCC[C@H](NC(=O)[C@H](CC(=O)O)NC(=O)[C@H](CO)NC(=O)[C@@H](NC(=O)[C@](C)(Cc1ccccc1F)NC(=O)[C@@H](NC(=O)CNC(=O)[C@H](CCC(=O)O)NC(=O)C(C)(C)NC(=O)[C@@H](N)Cc1ccc(O)cc1)[C@@H](C)O)[C@@H](C)O)C(=O)N[C@@H](CO)C(=O)N[C@H](C(=O)N[C@@](C)(CC(C)C)C(=O)N[C@@H](CC(C)C)C(=O)N[C@@H](CC(=O)O)C(=O)N[C@@H](CCCN)C(=O)N[C@H](C(=O)N[C@@H](C)C(=O)N[C@@H](CCC(N)=O)C(=O)NC(C)(C)C(=O)N[C@@H](CCC(=O)O)C(=O)N[C@@H](Cc1ccccc1)C(=O)N[C@H](C(=O)N[C@@H](CCCCNC(=O)COCCOCCNC(=O)COCCOCCNC(=O)CC[C@H](NC(=O)CCCCCCCCCCCCC(=O)O)C(=O)O)C(=O)N[C@@](C)(Cc1ccc(O)cc1)C(=O)N[C@@H](CC(C)C)C(=O)N[C@H](C(=O)N[C@@H](CCCCNC(=O)COCCOCCNC(=O)COCCOCCNC(=O)CC[C@H](NC(=O)CCCCCCCCCCCCC(=O)O)C(=O)O)C(=O)NCC(=O)NCC(=O)N1CCC[C@H]1C(=O)N[C@@H](CO)C(=O)N[C@@H](CO)C(=O)NCC(=O)N[C@@H](C)C(=O)N1CCC[C@H]1C(=O)N1CCC[C@H]1C(=O)N1CCC[C@H]1C(=O)N[C@@H](CO)C(N)=O)[C@@H](C)CC)[C@@H](C)CC)[C@@H](C)CC)[C@@H](C)CC` [Example 269], the EC50 on hGIPR (setting [1]) is 2.65 nM; at hGCGR (setting [3]), over 9950 nM; on hGCGR (setting [4]) it was over 9950 nM; on hGLP-1R (setting [6]) it was 1.72 nM. In addition, the Emax was 87.3% on hGIPR (setting [7]); 95.3% at hGIPR (setting [2]); 105% on hGLP-1R (setting [8]); 96.5% on hGLP-1R (HEK293, cAMP, 37° C., 0.1% bovine casein, percent of maximal response to GLP-1(7-36)NH2, arithmetic mean, read-out: hGLP-1R Emax, % ± SEM).
